Counter-ions that a name gives are not always drawn.
Columns and labels:
Settings in all cases: exposure time: 72 h
E28 [1] = patient-derived glioblastoma stem cells of classical subtype; test: phenotypic distance (Euclidean, principal components) from DMSO controls (arbitrary units); higher = stronger morphological change
E34 [2] = patient-derived glioblastoma stem cells of proneural subtype; test: as above
E31 [3] = patient-derived glioblastoma stem cells of proneural subtype; test: as above
E13 [4] = patient-derived glioblastoma stem cells of classical subtype; test: as above
E57 [5] = patient-derived glioblastoma stem cells of mesenchymal subtype; test: as above
E21 [6] = patient-derived glioblastoma stem cells of mesenchymal subtype; test: as above
FT3469 [7] = normal neural stem cell line; test: as above
E28 [8] = test: surviving fraction (nuclei count normalised to DMSO); higher = more cells surviving (less toxic)
E34 [9] = test: as above
E31 [10] = test: as above
E13 [11] = test: as above
E57 [12] = test: as above
E21 [13] = test: as above
FT3469 [14] = test: as above
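Throughout, for phenotypic distance (Euclidean, principal components) from DMSO controls: cell Painting imaging in 384-well plates, CellProfiler features reduced to at least 20 principal components, Euclidean distance versus same-plate DMSO vehicle wells (0.1% v/v), median over six images per well.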
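Throughout, for surviving fraction (nuclei count normalised to DMSO): nuclei counted by high-content imaging of Hoechst-stained cells in laminin-coated 384-well plates, relative to 0.1% DMSO vehicle wells, with staurosporine as cell-death control.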

O=c1[nH]c(=O)n([C@H]2C[C@H](O)[C@@H](CO)O2)cc1I [Idoxuridine]
Settings	phenotypic distance	surviving fraction
E13 [4], 4.1 nM	1.19	–
E13 [4], 12.3 nM	1.08	–
E13 [4], 37 nM	1.53	–
E13 [4], 111.1 nM	0.919	–
E13 [4], 333.3 nM	0.742	–
E13 [4], 1000 nM	1.06	–
E13 [4], 3000 nM	0.576	–
E13 [11], 4.1 nM	–	0.99
E13 [11], 12.3 nM	–	0.847
E13 [11], 37 nM	–	0.893
E13 [11], 111.1 nM	–	0.967
E13 [11], 333.3 nM	–	0.953
E13 [11], 1000 nM	–	1.02
E13 [11], 3000 nM	–	1.06
E21 [6], 4.1 nM	0.811	–
E21 [6], 12.3 nM	1.68	–
E21 [6], 37 nM	1.77	–
E21 [6], 111.1 nM	0.694	–
E21 [6], 333.3 nM	1.11	–
E21 [6], 1000 nM	1.12	–
E21 [6], 3000 nM	1.56	–
E21 [13], 4.1 nM	–	0.958
E21 [13], 12.3 nM	–	0.967
E21 [13], 37 nM	–	1
E21 [13], 111.1 nM	–	0.893
E21 [13], 333.3 nM	–	1.01
E21 [13], 1000 nM	–	0.969
E21 [13], 3000 nM	–	0.986
E28 [1], 4.1 nM	0.822	–
E28 [1], 12.3 nM	0.591	–
E28 [1], 37 nM	0.96	–
E28 [1], 111.1 nM	0.701	–
E28 [1], 333.3 nM	0.922	–
E28 [1], 1000 nM	0.762	–
E28 [1], 3000 nM	1.1	–
E28 [8], 4.1 nM	–	1.11
E28 [8], 12.3 nM	–	0.859
E28 [8], 37 nM	–	1.06
E28 [8], 111.1 nM	–	1.12
E28 [8], 333.3 nM	–	0.97
E28 [8], 1000 nM	–	0.76
E28 [8], 3000 nM	–	0.954
E31 [3], 4.1 nM	1.23	–
E31 [3], 12.3 nM	0.821	–
E31 [3], 37 nM	0.938	–
E31 [3], 111.1 nM	0.814	–
E31 [3], 333.3 nM	0.763	–
E31 [3], 1000 nM	0.973	–
E31 [3], 3000 nM	0.756	–
E31 [10], 4.1 nM	–	0.736
E31 [10], 12.3 nM	–	1.04
E31 [10], 37 nM	–	0.782
E31 [10], 111.1 nM	–	1.15
E31 [10], 333.3 nM	–	0.725
E31 [10], 1000 nM	–	0.982
E31 [10], 3000 nM	–	0.787
E34 [2], 4.1 nM	0.63	–
E34 [2], 12.3 nM	0.803	–
E34 [2], 37 nM	0.845	–
E34 [2], 111.1 nM	0.69	–
E34 [2], 333.3 nM	0.689	–
E34 [2], 1000 nM	0.829	–
E34 [2], 3000 nM	1.45	–
E34 [9], 4.1 nM	–	0.86
E34 [9], 12.3 nM	–	1
E34 [9], 37 nM	–	1.04
E34 [9], 111.1 nM	–	0.92
E34 [9], 333.3 nM	–	1.03
E34 [9], 1000 nM	–	0.959
E34 [9], 3000 nM	–	1.01
E57 [5], 4.1 nM	0.916	–
E57 [5], 12.3 nM	0.612	–
E57 [5], 37 nM	0.986	–
E57 [5], 111.1 nM	1.62	–
E57 [5], 333.3 nM	0.906	–
E57 [5], 1000 nM	1.14	–
E57 [5], 3000 nM	1.5	–
E57 [12], 4.1 nM	–	1.04
E57 [12], 12.3 nM	–	1.02
E57 [12], 37 nM	–	0.958
E57 [12], 111.1 nM	–	0.992
E57 [12], 333.3 nM	–	1.01
E57 [12], 1000 nM	–	0.99
E57 [12], 3000 nM	–	0.867
FT3469 [7], 4.1 nM	0.962	–
FT3469 [7], 12.3 nM	1.15	–
FT3469 [7], 37 nM	0.953	–
FT3469 [7], 111.1 nM	0.541	–
FT3469 [7], 333.3 nM	1.76	–
FT3469 [7], 1000 nM	0.62	–
FT3469 [7], 3000 nM	0.72	–
FT3469 [14], 4.1 nM	–	0.845
FT3469 [14], 12.3 nM	–	1.33
FT3469 [14], 37 nM	–	0.987
FT3469 [14], 111.1 nM	–	0.845
FT3469 [14], 333.3 nM	–	1.18
FT3469 [14], 1000 nM	–	0.86
FT3469 [14], 3000 nM	–	1.07

N=C(N)NCc1cccc(I)c1 [Iobenguane sulfate]
Settings	phenotypic distance	surviving fraction
E13 [4], 4.1 nM	0.573	–
E13 [4], 12.3 nM	0.965	–
E13 [4], 37 nM	0.696	–
E13 [4], 111.1 nM	0.835	–
E13 [4], 333.3 nM	0.643	–
E13 [4], 1000 nM	0.541	–
E13 [4], 3000 nM	0.796	–
E13 [11], 4.1 nM	–	0.873
E13 [11], 12.3 nM	–	0.869
E13 [11], 37 nM	–	0.916
E13 [11], 111.1 nM	–	0.908
E13 [11], 333.3 nM	–	0.989
E13 [11], 1000 nM	–	0.922
E13 [11], 3000 nM	–	1.08
E21 [6], 4.1 nM	0.441	–
E21 [6], 12.3 nM	0.695	–
E21 [6], 37 nM	1.24	–
E21 [6], 111.1 nM	0.881	–
E21 [6], 333.3 nM	0.867	–
E21 [6], 1000 nM	0.81	–
E21 [6], 3000 nM	0.765	–
E21 [13], 4.1 nM	–	0.982
E21 [13], 12.3 nM	–	0.855
E21 [13], 37 nM	–	0.854
E21 [13], 111.1 nM	–	0.921
E21 [13], 333.3 nM	–	0.972
E21 [13], 1000 nM	–	1.05
E21 [13], 3000 nM	–	0.879
E28 [1], 4.1 nM	0.591	–
E28 [1], 12.3 nM	0.866	–
E28 [1], 37 nM	0.64	–
E28 [1], 111.1 nM	0.721	–
E28 [1], 333.3 nM	0.496	–
E28 [1], 1000 nM	0.786	–
E28 [1], 3000 nM	0.814	–
E28 [8], 4.1 nM	–	0.875
E28 [8], 12.3 nM	–	1.03
E28 [8], 37 nM	–	0.94
E28 [8], 111.1 nM	–	1.05
E28 [8], 333.3 nM	–	1.04
E28 [8], 1000 nM	–	1.05
E28 [8], 3000 nM	–	0.936
E31 [3], 4.1 nM	0.547	–
E31 [3], 12.3 nM	0.684	–
E31 [3], 37 nM	0.567	–
E31 [3], 111.1 nM	0.714	–
E31 [3], 333.3 nM	0.802	–
E31 [3], 1000 nM	0.469	–
E31 [3], 3000 nM	0.734	–
E31 [10], 4.1 nM	–	0.961
E31 [10], 12.3 nM	–	0.997
E31 [10], 37 nM	–	0.864
E31 [10], 111.1 nM	–	1.15
E31 [10], 333.3 nM	–	1.07
E31 [10], 1000 nM	–	1.13
E31 [10], 3000 nM	–	0.964
E34 [2], 4.1 nM	0.386	–
E34 [2], 12.3 nM	0.879	–
E34 [2], 37 nM	0.823	–
E34 [2], 111.1 nM	0.771	–
E34 [2], 333.3 nM	1.44	–
E34 [2], 1000 nM	0.934	–
E34 [2], 3000 nM	0.966	–
E34 [9], 4.1 nM	–	0.935
E34 [9], 12.3 nM	–	1.1
E34 [9], 37 nM	–	1.02
E34 [9], 111.1 nM	–	0.975
E34 [9], 333.3 nM	–	1.08
E34 [9], 1000 nM	–	1.1
E34 [9], 3000 nM	–	1.25
E57 [5], 4.1 nM	0.755	–
E57 [5], 12.3 nM	0.843	–
E57 [5], 37 nM	0.712	–
E57 [5], 111.1 nM	0.905	–
E57 [5], 333.3 nM	0.728	–
E57 [5], 1000 nM	0.452	–
E57 [5], 3000 nM	0.547	–
E57 [12], 4.1 nM	–	1.03
E57 [12], 12.3 nM	–	0.978
E57 [12], 37 nM	–	0.973
E57 [12], 111.1 nM	–	1.03
E57 [12], 333.3 nM	–	0.992
E57 [12], 1000 nM	–	1.01
E57 [12], 3000 nM	–	1.04
FT3469 [7], 4.1 nM	0.354	–
FT3469 [7], 12.3 nM	3.38	–
FT3469 [7], 37 nM	0.885	–
FT3469 [7], 111.1 nM	1.06	–
FT3469 [7], 333.3 nM	1.08	–
FT3469 [7], 1000 nM	0.871	–
FT3469 [7], 3000 nM	0.634	–
FT3469 [14], 4.1 nM	–	1.08
FT3469 [14], 12.3 nM	–	1.12
FT3469 [14], 37 nM	–	0.963
FT3469 [14], 111.1 nM	–	1.09
FT3469 [14], 333.3 nM	–	1.1
FT3469 [14], 1000 nM	–	0.904
FT3469 [14], 3000 nM	–	1.14
